The text below walks through data of US10870638B2, “Pyridazinone compound or its salt, and herbicide containing it” (ISHIHARA SANGYO KAISHA, LTD., priority 2016, dated 2020).

Structures are written as SMILES.

Experiment in all cases: Test Example 1: foliar treatment, growth inhibition rate on 14th day
Common to all, as to assay type: in vivo
Details in all cases: active ingredient amount 31 g/ha, 14th day after application

Experiment [1] deals with barnyardgrass (Echinochloa crus-qalli L.). Put shortly: (§1)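 Visual 0–100% inhibition scoring (100 = complete kill) at 14 days after foliar treatment of soil-grown seedlings at species-specific leaf stages, with the compound sprayed as a wettable powder or emulsifiable concentrate dilution.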
Experiment [2] deals with rice (Oryza sativa L.). Put shortly:
(§2)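 Growth inhibition rates (%) come from visual observation on the 14th day following a single foliar application. Soybean was sprayed at the primary leaf stage, rice at 0.2–2.7 leaves, wild oat at 0.4–1.2, green foxtail at 0.5–3.2.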

The subject of experiment [3] is wheat (Triticum aestivum L.). An outline of the steps:
as §1

Experiment [4] deals with corn (Zea mays L.). Put shortly:
as §1

The subject of experiment [5] is wild oat (Avena fatua L.). An outline of the steps:
as §2

Experiment [6] deals with italian ryegrass (Lolium multiflorum Lam.). Put shortly: as §1
For experiment [7], the system named is crabgrass (Digitaria sanquinalis L.). An outline of the steps:
as §1

The test system of experiment [8] is soybean (Glycine max Merr.). Put shortly: as §2
The test system of experiment [9] is green foxtail (Setaria viridis L.). An outline of the steps:
as §2

Experiment [10] deals with redroot pigweed (Amaranthus retroflexus L.). An outline of the steps: as §1
Setting [11] is: visual, 0 = non-treated, 100 = complete kill.

Regarding `Cc1ccc(Oc2ccc3nc(Cl)cn3n2)cc1-c1c(O)c(C)nn(C)c1=O` [Compound 2-193], the “Growth inhibition rate (%) Barnyardgrass” value in experiment [1] amounted to 70%. Further, the “Growth inhibition rate (%) Rice” value in experiment [2] is 0%. In experiment [3], the “Growth inhibition rate (%) Wheat” value turned out to be 0%. The “Growth inhibition rate (%) Corn” value in experiment [4] worked out at 65%. The “Growth inhibition rate (%) Wild oat” value in experiment [5] worked out at 0%. Further, the “Growth inhibition rate (%) Italian ryegrass” value in [6] worked out at 0%. For the same compound, the “Growth inhibition rate (%) Crabgrass” value in [7] is on record as 90%. Also, in experiment [8], the “Growth inhibition rate (%) Soybean” value is listed as 0%. Further, the “Growth inhibition rate (%) Green foxtail” value in experiment [9] was 93%. Further, the “Growth inhibition rate (%) Redroot pigweed” value in [10] came to 0%.

For the compound `CCOC(=O)Oc1c(C)nn(C)c(=O)c1-c1cc(Oc2cnc3cc(Cl)ccc3n2)ccc1C` [Compound 3-35], the “Growth inhibition rate (%) Barnyardgrass” value in experiment [1] is listed as 100%. In experiment [2], the “Growth inhibition rate (%) Rice” value was determined as 95%. Moreover, in experiment [3], the “Growth inhibition rate (%) Wheat” value amounted to 100%. The “Growth inhibition rate (%) Corn” value in [4] was determined as 60%. Besides, in [5], the “Growth inhibition rate (%) Wild oat” value came to 100%. Besides, in [6], the “Growth inhibition rate (%) Italian ryegrass” value is on record as 99%. For the same compound, the “Growth inhibition rate (%) Crabgrass” value in experiment [7] amounted to 99%. Besides, the “Growth inhibition rate (%) Soybean” value in experiment [8] is 25%. Also, the “Growth inhibition rate (%) Green foxtail” value in experiment [9] amounted to 99%. For the same compound, the “Growth inhibition rate (%) Redroot pigweed” value in experiment [10] was determined as 10%.

Regarding `CCCCC(=O)Oc1c(C)nn(C)c(=O)c1-c1cc(Oc2cnc3cc(Cl)ccc3n2)ccc1C` [Compound 3-36], the “Growth inhibition rate (%) Barnyardgrass” value in experiment [1] was found to be 100%. The “Growth inhibition rate (%) Rice” value in experiment [2] stood at 90%. Moreover, the “Growth inhibition rate (%) Wheat” value in experiment [3] is given as 99%. The “Growth inhibition rate (%) Corn” value in experiment [4] is on record as 40%. For the same compound, in experiment [5], the “Growth inhibition rate (%) Wild oat” value worked out at 99%. Further, in experiment [6], the “Growth inhibition rate (%) Italian ryegrass” value came out at 99%. For the same compound, the “Growth inhibition rate (%) Crabgrass” value in [7] is listed as 99%. Also, the “Growth inhibition rate (%) Soybean” value in experiment [8] is given as 40%. In addition, in experiment [9], the “Growth inhibition rate (%) Green foxtail” value is on record as 99%. Moreover, the “Growth inhibition rate (%) Redroot pigweed” value in experiment [10] was 0%.

For the compound `Cc1ccc(Oc2cnc3cc(Cl)ccc3n2)cc1-c1c(OC(=O)C2CC2)c(C)nn(C)c1=O` [Compound 3-37], in [1], the “Growth inhibition rate (%) Barnyardgrass” value is given as 100%. For the same compound, the “Growth inhibition rate (%) Rice” value in [2] amounted to 95%. In addition, the “Growth inhibition rate (%) Wheat” value in [3] was determined as 99%. Moreover, the “Growth inhibition rate (%) Corn” value in experiment [4] is 45%. For the same compound, the “Growth inhibition rate (%) Wild oat” value in experiment [5] came out at 98%. Also, in [6], the “Growth inhibition rate (%) Italian ryegrass” value is listed as 99%. For the same compound, in [7], the “Growth inhibition rate (%) Crabgrass” value came out at 99%. Also, the “Growth inhibition rate (%) Soybean” value in [8] was found to be 30%. Besides, the “Growth inhibition rate (%) Green foxtail” value in [9] worked out at 100%. Also, the “Growth inhibition rate (%) Redroot pigweed” value in [10] came to 10%.

`Cc1ccc(Oc2cnc3cc(Cl)ccc3n2)cc1-c1c(OC(=O)c2ccccc2)c(C)nn(C)c1=O` [Compound 3-38]: in [1], the “Growth inhibition rate (%) Barnyardgrass” value is 100%. Further, in experiment [2], the “Growth inhibition rate (%) Rice” value is reported as 80%. Moreover, the “Growth inhibition rate (%) Wheat” value in experiment [3] amounted to 98%. Further, the “Growth inhibition rate (%) Corn” value in experiment [4] was 30%. Also, in [5], the “Growth inhibition rate (%) Wild oat” value was found to be 98%. In addition, the “Growth inhibition rate (%) Italian ryegrass” value in [6] is 99%. Further, the “Growth inhibition rate (%) Crabgrass” value in [7] was 100%. Moreover, in experiment [8], the “Growth inhibition rate (%) Soybean” value is listed as 25%. Also, the “Growth inhibition rate (%) Green foxtail” value in experiment [9] stood at 100%. Besides, in experiment [10], the “Growth inhibition rate (%) Redroot pigweed” value is 20%.

Turning to `Cc1ccc(Oc2cnc3cc(Cl)ccc3n2)cc1-c1c(OC(=O)N2CCOCC2)c(C)nn(C)c1=O` [Compound 3-39], the “Growth inhibition rate (%) Barnyardgrass” value in experiment [1] was 88%. Also, in experiment [2], the “Growth inhibition rate (%) Rice” value was found to be 0%. Besides, the “Growth inhibition rate (%) Wheat” value in experiment [3] is recorded as 0%. In experiment [4], the “Growth inhibition rate (%) Corn” value is listed as 15%. Moreover, the “Growth inhibition rate (%) Wild oat” value in [5] was 0%. In experiment [6], the “Growth inhibition rate (%) Italian ryegrass” value is 0%. Also, the “Growth inhibition rate (%) Crabgrass” value in experiment [7] is recorded as 0%. The “Growth inhibition rate (%) Soybean” value in experiment [8] is given as 0%. Besides, in [9], the “Growth inhibition rate (%) Green foxtail” value came out at 95%. Besides, the “Growth inhibition rate (%) Redroot pigweed” value in [10] is recorded as 0%.

With `Cc1ccc(Oc2cnc3cc(Cl)ccc3n2)cc1-c1c(OCc2ccccc2)c(C)nn(C)c1=O` [Compound 3-41], the “Growth inhibition rate (%) Barnyardgrass” value in [1] worked out at 100%. Moreover, the “Growth inhibition rate (%) Rice” value in [2] came to 10%. Moreover, the “Growth inhibition rate (%) Wheat” value in experiment [3] worked out at 99%. Also, the “Growth inhibition rate (%) Corn” value in experiment [4] came out at 20%. Further, the “Growth inhibition rate (%) Wild oat” value in experiment [5] was found to be 98%. In [6], the “Growth inhibition rate (%) Italian ryegrass” value is on record as 99%. Besides, the “Growth inhibition rate (%) Crabgrass” value in experiment [7] came out at 95%. The “Growth inhibition rate (%) Soybean” value in experiment [8] was found to be 0%. Besides, the “Growth inhibition rate (%) Green foxtail” value in [9] came out at 99%. Besides, the “Growth inhibition rate (%) Redroot pigweed” value in experiment [10] is listed as 20%.

`Cc1ccc(Oc2cnc3cc(Cl)ccc3n2)cc1-c1c(OC(=O)C(C)(C)C)c(C)nn(C)c1=O` [Compound 3-42]: the “Growth inhibition rate (%) Barnyardgrass” value in [1] came to 100%. The “Growth inhibition rate (%) Rice” value in experiment [2] amounted to 60%. In [3], the “Growth inhibition rate (%) Wheat” value came to 20%. Moreover, the “Growth inhibition rate (%) Corn” value in experiment [4] is listed as 30%. Besides, the “Growth inhibition rate (%) Wild oat” value in [5] was 100%. Moreover, the “Growth inhibition rate (%) Italian ryegrass” value in [6] is 95%. Besides, the “Growth inhibition rate (%) Crabgrass” value in experiment [7] stood at 20%. For the same compound, in [8], the “Growth inhibition rate (%) Soybean” value was 0%. For the same compound, in experiment [9], the “Growth inhibition rate (%) Green foxtail” value is given as 98%. Also, in experiment [10], the “Growth inhibition rate (%) Redroot pigweed” value was determined as 10%.

For the compound `Cc1ccc(Oc2cnc3cc(Cl)ccc3n2)cc1-c1c(OC(=O)c2cn(C)nc2C)c(C)nn(C)c1=O` [Compound 3-43], in experiment [1], the “Growth inhibition rate (%) Barnyardgrass” value came out at 100%. Further, the “Growth inhibition rate (%) Rice” value in experiment [2] was 80%. In addition, the “Growth inhibition rate (%) Wheat” value in experiment [3] stood at 95%. In addition, the “Growth inhibition rate (%) Corn” value in experiment [4] is listed as 40%. For the same compound, in experiment [5], the “Growth inhibition rate (%) Wild oat” value is 98%. In addition, the “Growth inhibition rate (%) Italian ryegrass” value in experiment [6] is 98%. Also, the “Growth inhibition rate (%) Crabgrass” value in [7] is 98%. Moreover, the “Growth inhibition rate (%) Soybean” value in experiment [8] is listed as 10%. Further, in experiment [9], the “Growth inhibition rate (%) Green foxtail” value is reported as 100%. Moreover, the “Growth inhibition rate (%) Redroot pigweed” value in [10] is 0%.

In the case of `COC(=O)OC(C)Oc1c(C)nn(C)c(=O)c1-c1cc(Oc2cnc3cc(Cl)ccc3n2)ccc1C` (centres unmarked) [Compound 3-44], the “Growth inhibition rate (%) Barnyardgrass” value in experiment [1] came to 100%. Besides, the “Growth inhibition rate (%) Rice” value in experiment [2] worked out at 85%. Moreover, the “Growth inhibition rate (%) Wheat” value in experiment [3] came out at 85%. Further, the “Growth inhibition rate (%) Corn” value in [4] is given as 20%. Besides, the “Growth inhibition rate (%) Wild oat” value in experiment [5] amounted to 100%. Also, the “Growth inhibition rate (%) Italian ryegrass” value in [6] was 98%. The “Growth inhibition rate (%) Crabgrass” value in [7] came out at 99%. For the same compound, in [8], the “Growth inhibition rate (%) Soybean” value is 10%. Moreover, the “Growth inhibition rate (%) Green foxtail” value in [9] is reported as 100%. Also, in experiment [10], the “Growth inhibition rate (%) Redroot pigweed” value was 0%.

In the case of `COC(=O)CCC(=O)Oc1c(C)nn(C)c(=O)c1-c1cc(Oc2cnc3cc(Cl)ccc3n2)ccc1C` [Compound 3-46], in experiment [1] (setting [11]), the “Growth inhibition rate (%) Barnyardgrass” value worked out at 100%. Besides, the “Growth inhibition rate (%) Rice” value in experiment [2] (setting [11]) turned out to be 98%. The “Growth inhibition rate (%) Wheat” value in experiment [3] (setting [11]) was 98%. Further, the “Growth inhibition rate (%) Corn” value in experiment [4] (setting [11]) turned out to be 50%. Further, the “Growth inhibition rate (%) Wild oat” value in experiment [5] (setting [11]) is reported as 100%. In experiment [6] (setting [11]), the “Growth inhibition rate (%) Italian ryegrass” value was 100%. In addition, in [7] (setting [11]), the “Growth inhibition rate (%) Crabgrass” value is 99%. Also, the “Growth inhibition rate (%) Soybean” value in [8] (setting [11]) was found to be 35%. Also, the “Growth inhibition rate (%) Green foxtail” value in experiment [9] (setting [11]) worked out at 100%. In addition, the “Growth inhibition rate (%) Redroot pigweed” value in experiment [10] (setting [11]) is on record as 20%.
